PubChem BioAssay (NCI)
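In this assay, cells in 96-well plates receive the compound at five concentrations for 48 hours. Endpoints are linearly interpolated between the surrounding concentrations. TGI is the concentration that stops growth completely.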

Assays:
Test in all cases: NCI tumour cell line growth inhibition, 48 h
786-0 renal = test system: 786-0 renal
A498 renal = test system: A498 renal
A549 NSCLC = test system: A549 NSCLC
ACHN renal = test system: ACHN renal
CCRF-CEM leukemia = test system: CCRF-CEM leukemia
COLO 205 colon = test system: COLO 205 colon
DU-145 prostate = test system: DU-145 prostate
EKVX NSCLC = test system: EKVX NSCLC
HCC-2998 colon = test system: HCC-2998 colon
HCT-116 colon = test system: HCT-116 colon
HCT-15 colon = test system: HCT-15 colon
HL-60(TB) leukemia = test system: HL-60(TB) leukemia
HOP-62 NSCLC = test system: HOP-62 NSCLC
HOP-92 NSCLC = test system: HOP-92 NSCLC
HS 578T breast = test system: HS 578T breast
HT29 colon = test system: HT29 colon
K-562 leukemia = test system: K-562 leukemia
KM12 colon = test system: KM12 colon
LOX IMVI melanoma = test system: LOX IMVI melanoma
M14 melanoma = test system: M14 melanoma
MALME-3M melanoma = test system: MALME-3M melanoma
MCF7 breast = test system: MCF7 breast
MDA-MB-231 breast = test system: MDA-MB-231 breast
MDA-MB-435 = test system: MDA-MB-435
MOLT-4 leukemia = test system: MOLT-4 leukemia
NCI-H226 lung = test system: NCI-H226 lung
NCI-H23 lung = test system: NCI-H23 lung
NCI-H460 lung = test system: NCI-H460 lung
NCI/ADR-RES ovarian = test system: NCI/ADR-RES ovarian
OVCAR-4 ovarian = test system: OVCAR-4 ovarian
OVCAR-5 ovarian = test system: OVCAR-5 ovarian
OVCAR-8 ovarian = test system: OVCAR-8 ovarian
RPMI-8226 leukemia = test system: RPMI-8226 leukemia
RXF 393 renal = test system: RXF 393 renal
SF-268 CNS = test system: SF-268 CNS
SF-295 CNS = test system: SF-295 CNS
SF-539 CNS = test system: SF-539 CNS
SK-MEL-28 melanoma = test system: SK-MEL-28 melanoma
SK-MEL-5 melanoma = test system: SK-MEL-5 melanoma
SK-OV-3 ovarian = test system: SK-OV-3 ovarian
SN12C renal = test system: SN12C renal
SNB-19 CNS = test system: SNB-19 CNS
SNB-75 CNS = test system: SNB-75 CNS
SR leukemia = test system: SR leukemia
SW-620 colon = test system: SW-620 colon
TK-10 renal = test system: TK-10 renal
U251 CNS = test system: U251 CNS
UACC-257 melanoma = test system: UACC-257 melanoma
UO-31 renal = test system: UO-31 renal
BT-549 breast = test system: BT-549 breast
CAKI-1 renal = test system: CAKI-1 renal
IGROV1 ovarian = test system: IGROV1 ovarian
NCI-H522 lung = test system: NCI-H522 lung
PC-3 prostate = test system: PC-3 prostate
SK-MEL-2 melanoma = test system: SK-MEL-2 melanoma

Measured: TGI

COc1cc(C(=O)O[C@H]2CCC3CCC2N3C)cc(OC)c1OC (stereo not given in full)
not listed: BT-549 breast | CAKI-1 renal | IGROV1 ovarian | NCI-H522 lung | PC-3 prostate | SK-MEL-2 melanoma
> 100 µM: all other assays above

O=C(NCCn1ccnn1)Nc1ccccc1
not listed: A498 renal | HCT-116 colon | HS 578T breast | NCI-H226 lung | OVCAR-4 ovarian | RXF 393 renal | SF-539 CNS | SK-OV-3 ovarian | UO-31 renal
> 100 µM: all other assays above
